Positions count from the first letter of the chain named. Like-named read-outs stand apart in the source and are kept apart here.
What was measured:
[1] = tested on: LNCaP (AR-T877A) xenograft; assay: LNCaP xenograft model of prostate cancer in mice; format: in vivo
From the text: Our goal in this example is to identify small molecules that block activity of mutant androgen receptors (ARs) but not wild type AR, by synthesizing a library of compounds, to explore possible mechanisms of action, and to evaluate therapeutic potential. A total of 75 tetra-aryl substituted cyclobutanes (CBs) were synthesized. FIG. 18 illustrates a general reaction scheme for the synthesis of some of these compounds from the photo cycloaddition of 2,4-dichloro-6-styrylpyrimidine. FIG. 19 illustrates a general reaction scheme for the synthesis from the photo cycloaddition of 2,4-disubstituted 6-styrylpyrimidines. LNCaP cell proliferation was evaluated. LNCaP cells are a cell line of human cells commonly used in the field of oncology. LNCaP cells are androgen-sensitive human prostate adenocarcinoma cells derived from the left supraclavicular lymph node metastasis from a person in 1977. They are adherent epithelial cells growing in aggregates and as single cells. […] . FIGS. 21A, B, C, and D are graphic summaries of the results for cyclobutane compound CB-7. […] Prostate cancer was the most common tumor among men in the United States in 2012, with over 240,000 diagnoses and approximately 28,000 deaths. […] . FIG. 23 illustrates the androgen receptor ligand binding domain bound to testosterone. FIG. 24 illustrates mouse survival data from a mutant androgen receptor-T877A xenograft experiment for CB-7 at various concentrations. […] . FIGS. 25A and B provide data on AR mutant selectivity for compounds CB-1 to CB-8. […] It is seen that the cyclobutanes show selectivity of mutant androgen receptor activation in the luciferase transcriptional assay in CV-1 cells (a commercially available cell line derived from the kidney of an African green monkey). FIGS. 26 and 27A and B illustrate data from a ligand competition assay for compounds CB-1, CB-6, and CB-7.
Based on the above results, we further evaluated the effects of CB 10 in vivo. […] We also utilized a traditional in vivo model of prostate cancer, the LNCaP xenograft model.

[2] = biological target: T1, AR (Homo sapiens, UniProt P10275); assay: Cellular location of AR by microscopy
T1 sequence (P10275 1-920): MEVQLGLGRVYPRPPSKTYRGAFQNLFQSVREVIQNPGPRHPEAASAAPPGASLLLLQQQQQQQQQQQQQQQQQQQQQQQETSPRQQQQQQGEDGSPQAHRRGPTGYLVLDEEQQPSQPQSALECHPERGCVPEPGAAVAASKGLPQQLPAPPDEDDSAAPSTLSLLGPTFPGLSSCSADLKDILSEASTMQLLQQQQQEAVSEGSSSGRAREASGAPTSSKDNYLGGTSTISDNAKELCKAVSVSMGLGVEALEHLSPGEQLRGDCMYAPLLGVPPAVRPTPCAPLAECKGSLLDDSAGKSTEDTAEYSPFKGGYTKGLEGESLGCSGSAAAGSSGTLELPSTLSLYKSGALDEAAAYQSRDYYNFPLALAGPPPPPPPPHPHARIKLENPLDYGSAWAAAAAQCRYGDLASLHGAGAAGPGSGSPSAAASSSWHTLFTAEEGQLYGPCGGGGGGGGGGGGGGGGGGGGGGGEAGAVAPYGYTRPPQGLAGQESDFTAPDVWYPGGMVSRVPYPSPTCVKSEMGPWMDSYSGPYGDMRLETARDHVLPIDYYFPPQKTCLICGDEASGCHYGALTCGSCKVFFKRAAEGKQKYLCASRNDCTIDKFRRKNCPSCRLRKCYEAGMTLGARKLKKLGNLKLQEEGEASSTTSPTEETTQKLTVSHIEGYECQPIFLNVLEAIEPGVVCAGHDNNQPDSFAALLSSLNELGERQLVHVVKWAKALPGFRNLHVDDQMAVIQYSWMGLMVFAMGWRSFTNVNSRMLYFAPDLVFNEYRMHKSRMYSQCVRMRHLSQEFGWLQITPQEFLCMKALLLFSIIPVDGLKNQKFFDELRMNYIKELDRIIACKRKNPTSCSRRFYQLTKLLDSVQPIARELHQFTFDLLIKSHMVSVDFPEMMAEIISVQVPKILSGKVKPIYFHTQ

[3] = biological target: T1, AR; assay: Chromatin immunoprecipitation of AR at androgen-response elements in XIP-AR cells
[4] = biological target: T1, AR; assay: AR target gene expression in XIP-AR cells; conditions: in the presence of R1881
[5] = tested on: androgen receptor; assay: Whole-cell competition binding assay using 3H-R1881; conditions: whole cells; mutant AR and WT-AR
[6] = tested on: LNCaP cells; assay: LNCaP cell proliferation; conditions: androgen-stimulated LNCaP cells
[7] = biological target: T2, wild type AR (Homo sapiens, UniProt P10275); assay: MMTV-luciferase transcription assay in CV-1 cells, wild type AR; format: cell-based; conditions: CV1 transient transfection, MMTV-Luciferase reporter; read-out: IC50 WT
T2 construct: expressed in transfected cells; host or cells: CV-1
T2 sequence (P10275 1-920): T1 sequence (P10275 1-920)
From the text: (§1) These compounds were screened using an AR-responsive MMTV transcription assay in CV-1 cells, utilizing both wild type and T877A (LNCaP) AR. […]

[8] = biological target: T3, W741C AR (Homo sapiens, UniProt P10275, W742C); assay: MMTV-luciferase transcription assay in CV-1 cells, W741C AR
T3 sequence (P10275 1-920 W742C): T1 sequence (P10275 1-920) with W742C

[9] = biological target: T4, T877A (LNCaP) AR (Homo sapiens, UniProt P10275, T878A); assay: MMTV-luciferase transcription assay in CV-1 cells, T877A AR; format: cell-based
T4 construct: expressed in transfected cells; host or cells: CV-1
T4 sequence (P10275 1-920 T878A): T1 sequence (P10275 1-920) with T878A
From the text: as §1

[10] = tested on: wild type androgen receptor; assay: FKBP51 endogenous gene expression in LNCaP-AR cells (wild type AR overexpressed); format: cell-based, human; conditions: at 20 M (so in the source)
From the text: (§2) FIG. 44 depicts data for dose-dependent inhibition of androgen receptor-dependent endogenous gene expression of FKBP51 by Compound 1 of Example IV in LNCaP cells producing exclusively T877A mutant androgen receptor (LNCaP-XIP) and LNCaP cells transfected with wild type androgen receptor (LNCaP-androgen receptor, ratio of wild type to T877A receptor is ca. 3:1).
(§3) To more fully characterize the selectivity of compound 1 for the mutant receptor, we measured its inhibitory potential against the WT and T877A mutant receptor in an AR-dependent luciferase transcription assay in CV-1 cells (FIGS. 43A and B).

[11] = biological target: T1, AR; assay: AR relative binding affinity (RBA)
[12] = biological target: T5, T877A mutant androgen receptor (Homo sapiens, UniProt P10275, T878A); assay: FKBP51 endogenous gene expression in LNCaP-XIP cells; format: cell-based; conditions: FKBP51 expression, T877A mutant receptor
T5 construct: endogenous in cells; host or cells: LNCaP-XIP
T5 sequence (P10275 1-920 T878A): T1 sequence (P10275 1-920) with T878A
From the text: as §2, §3

[13] = tested on: XIP-AR cells; assay: XIP-AR cell proliferation; conditions: XIP-AR overexpressing cells
[14] = LNCaP (AR-T877A) xenograft, concentrations comparable to MDV3100

## Clc1nccc([C@H]2[C@H](c3ccccc3)[C@@H](c3ccnc(Cl)n3)[C@H]2c2ccccc2)n1 [CB 10]
[1]; escalating dose 5 mpk to 100 mpk
  tumor weight at study termination: significant dose dependent inhibition of tumor growth
[1]; intact male mice bearing LNCaP xenografts, 50 mpk or 100 mpk
  tumor growth: significantly inhibited
[2]; microscopy
  cellular location of AR after treatment: AR is primarily outside of the nucleus
[3]
  AR recruitment to androgen-response elements of PSA and NKX3.1: inhibit the recruitment
[4]
  reversal of androgen stimulated gene expression: reverse androgen stimulated gene expression similar to MDV
[5]
  competition with 3H-R1881 for binding to AR: effectively compete against R1881 binding
[6]
  inhibition of LNCaP cell proliferation: equally as well as MDV

## CNc1cc([C@H]2[C@H](c3ccccc3)[C@H](c3cc(NC)nc(NC)n3)[C@H]2c2ccccc2)nc(NC)n1 [CB-51]
[7]
  IC50: > 20 µM
[8]; CV1 transient transfection, MMTV-Luciferase reporter
  IC50 W741C: Toxic
[9]; CV1 transient transfection, MMTV-Luciferase reporter, read-out: IC50 T877A
  IC50: > 20 µM

## COc1cc(C2C(c3ccccc3)C(c3cc(OC)nc(OC)n3)C2c2ccccc2)nc(OC)n1 (stereo not drawn) [CB 1]
[4]
  reversal of androgen stimulated gene expression: less effective
[5]
  competition with 3H-R1881 for binding to AR: effectively compete against R1881 binding

## C[C@]1(O)CC[C@H]2[C@@H]3CCC4=CC(=O)CCC4=C3C=C[C@@]21C [R1881, reference compound]
[2]
  cellular location of AR after treatment: promote nuclear translocation

## Clc1nccc([C@H]2[C@H](c3ccccc3)[C@@H](c3ccnc(Cl)n3)[C@H]2c2ccccc2)n1 [DPM-21]
[8]; AR-dependent luciferase transfection assay
  increase in potency for W741C AR over WT receptor: approximately 10 fold
[9]; AR-dependent luciferase transcription assay in CV-1 cells
  increase in potency for T877A mutant over WT: approximately 100 fold
[9]; T877A AR
  IC50 lower than 1: approximately 10 fold
[9]; read-out: IC50 for T877A AR
  IC50: ~0.1 µM

## COc1ccc(CNc2cc([C@H]3[C@H](c4ccccc4)[C@H](c4cc(NCc5ccc(OC)cc5)nc(NCc5ccc(OC)cc5)n4)[C@H]3c3ccccc3)nc(NCc3ccc(OC)cc3)n2)cc1 [CB-7]
[1]; [14]
  survival of mice: increases survival of mice
  tumor size: decreases tumor size
[5]
  competition with 3H-R1881 for binding to AR: compete with 3H-R1881

## Cc1cc([C@H]2[C@H](c3ccccc3)[C@H](c3cc(C)nc(C)n3)[C@H]2c2ccccc2)nc(C)n1 [CB-49]
[10]
  inhibition of FKBP51 gene expression: ca. 80%
[11]
  AR RBA: 0.027%
[12]
  concentration at which maximal inhibition is obtained: 6 µM

## CC(C)(O)C(=O)Nc1ccc([N+](=O)[O-])c(C(F)(F)F)c1 [OHF, hydroxyflutamide, reference compound]
[13]
  cell proliferation, compound alone: promote cell proliferation

Source: patent publication US9868705B2, “Tetra-aryl cyclobutane inhibitors of androgen receptor action for the treatment of hormone refractory cancer” (The Board of Trustees of the University of Illinois, priority 2013, dated 2018)
